Data set [1] concerns STZ-induced DR in the Brown Norway rat. Description: PAS staining of trypsin-digested retinal flat mounts: pericytes, pericyte ghosts, acellular capillaries. The class given is in vivo. The following applies: week 9 after STZ. How it is done:
(§1) Diabetes was induced in the Brown Norway rats (aged 9-10 weeks) by a single dose of streptozotocin (STZ; 65 mg/kg. Sigma) in 10 mM sodium citrate buffer, pH 4.5. After the STZ injection, rats were placed in their cages with ad libitum food and 10% (w/v) sucrose solution in tap water for 48 h. The next morning, 5% glucose (1 ml) was injected intraperitoneally or subcutaneously to all induced rats. Four days after the first STZ injection, the success of the induction was monitored by measuring the blood glucose levels from the saphenous vein. The induction of diabetes was considered successful when the blood glucose values measured by the rapidmeter were equal or higher than 16 mmol/l (288 mg/dl). Animals that were not diabetic based on this criterion 96 h after the first STZ injection received a second STZ injection.
(§2) The selected rats were monitored for blood glucose levels and animal health for 6 weeks, and then treated with weekly intravitreal (IVT) injections of vehicle or test compounds for three weeks for a total of 3× IVT eye injections per eye per animal.
For IVT treatment administration, the animals were anesthetized animals, placed under a stereoscope (Leica Microsystems), and a drop of iodine was applied on the cornea and allowed to spread evenly (Minims Povidone lodine 5%, Bausch & Lomb). […]
Four to six individual images obtained from a central area, and from a peripheral area of the retinal vasculature were acquired using a Leica Thunder 3D Tissue Imager (Leica Microsystems). The number of acellular capillaries, the number of pericytes and the number of pericyte ghosts were manually counted by an investigator blinded to the experimental group assignment.
Vascular abnormalities and the effect of induction of DR by STZ induction were also assessed by quantification of acellular capillaries, pericytes and pericyte ghosts on trypsin-digested retinal wholemounts. For quantification, 4-15 individual images were quantified for each animal and the data from each image were included in the analysis.
Subsequently, number of pericyte ghosts was quantified.

The test system is the same in data set [2]. Description: SD-OCT retinal thickness in STZ-induced diabetic retinopathy. The conditions noted are these: week 9 after STZ. The format is in vivo. How it is done:
as §1, §2
(§3) For IVT treatment administration, the animals were anesthetized animals, placed under a stereoscope (Leica Microsystems), and a drop of iodine was applied on the cornea and allowed to spread evenly (Minims Povidone lodine 5%, Bausch & Lomb). A small incision in the […] exposing the vitreous chamber was performed using a 30 G needle near the limbus. A microsyringe with a 33G needle (Hamilton Bonaduz AG, Bonaduz) attached was used to inject the compounds into the intravitreal space. The test solution was injected into the intravitreal space for 10 s, the needle was kept in place for additional 30 s before being removed to avoid the reflux of the compound. Chloramphenicol ointment was applied after the injection (Oftan Chlora, Santen Oy). The different treatments were administered three times by bilateral intravitreal administration of a volume of 5 μl at weeks six, seven, and eight after STZ induction.
Anesthetized rats were imaged with SD-OCT (Envisu R2200. Bioptigen Inc./Leica Microsystems) retinal scan at week nine as shown in FIG. 5C. The scanned area covers a 2.4×2.4 mm^2 of the retina centred around the optic nerve. Each scan is composed of 100 B Scans each one composed of 1000 A Scans. SD-OCT was performed on both eyes at week nine after DR induction prior to sacrifice and sampling.
The retinal thickness at week nine was analyzed by a convolutional neural network based on U-net architecture using transfer learning approach. The resulting segmentation masks were used to measure the layer thickness in each pixel-width column, i.e. a-scan, resulting in 1000 measuring points for each layer per one b-scan. Only measuring points that passed the automatic quality control criteria set were used in the calculations. The thickness results were presented as SD-OCT measurements of the inner retina, including the nerve ganglion cell layer, inner plexiform and inner nuclear layers; and the outer retina, including the outer plexiform layer, outer nuclear layer, inner and outer segment, and RPE/choroid. […] See FIGS. 5, 7 and 8 for the results of SD-OCT.
SD-OCT scans were taken at week nine prior to sampling. The retinal scans were segmented, and the thickness was analyzed by a convolutional neural network algorithm.
Outer retinal thickness was quantified from SD-OCT images from 24 locations to generate a mean thickness of outer retinal thickness. Outliers were removed using the GROUT method (Q=1%), leading to the removal of a total of 5 outliers (naïve: 0, STZ+Vehicle: 1; STZ+AF564: 1; STZ+Danegaptide: 1; STZ+AF564+Danegaptide: 2).
SD-OCT scans were taken at week nine prior to sampling. Retinal scans were segmented and the thickness was analyzed by a convolutional neural network algorithm. Inner retinal thickness was analyzed by region (FIG. 8).

The subject of data set [3] is kidney epithelial cells. The following applies: Squires et al., 2021; cited from earlier work.
In data set [4] the test system is Brown Norway rats. Description: Tolerability, macroscopic ophthalmic examinations after IVT injections. The class given is in vivo. The conditions noted are these: bilateral IVT 5 μl, three weekly injections. How it is done: as §3
STZ-induced cataracts are common in this model and developed moderate severity by the end of the study (FIG. 4). All test articles were well-tolerated, and no signs of ocular toxicity were identified by macroscopic ophthalmic examinations. Test articles exerted no differential effects on cataract development (FIG. 4).

Data set [5] concerns STZ-induced DR in the Brown Norway rat. Put plainly: Evans Blue retinal extravasation (vascular leakage) in STZ-induced diabetic retinopathy. The format is in vivo. The conditions noted are these: week 9 after STZ, 3 weekly IVT injections. How it is done: as §1, with “Animals that were not diabetic based on this criterion 96 h after the first STZ injection received a second STZ injection.” left out
The selected rats were monitored for blood glucose levels and animal health for 6 weeks, and then treated with weekly intravitreal (IVT) injections of vehicle or test compounds for three weeks for a total of 3× IVT eye injections per eye per animal. […]
Retinas were homogenized in formamide in a 1:10 ratio (w/v) and incubated overnight at +70°. […] Absorbance (λ=620 nm) of the samples was measured using a plate reader (Cytation 3, BioTek Instruments Inc., Winooski, VT) and the concentration of Evans Blue in each sample was calculated against a standard curve of Evans Blue and normalized to tissue weight. […]

For data set [6], the system named is Human retinal pigment epithelial cells (ARPE-19). Put plainly: Tight junction organization rate (TiJOR), anti-ZO-1 immunocytochemistry in stressed ARPE-19 monolayers. The conditions noted are these: danegaptide 100 nM, 24 h pre-treatment, then 48 h 30 mM glucose + sublethal tBHP; n=13-16. The class given is cell-based. The method, then:
For immunocytochemistry, ARPE-19 cells were grown to confluency in chamber slides for 72 h. Cells were then be pre-treated with Danegaptide (DGP; 100 nM) or vehicle control for 24 h. Subsequently, cells were challenged with a combination of sublethal oxidative stress (250 μM tert-butyl hydroperoxide; Millipore Sigma, St. Louis, MO) and hyperglycemia (30 mM glucose; Millipore Sigma, St. Louis, MO) for 48 h, in the continued presence of 100 nM DGP or vehicle.
Cells were labelled with anti-ZO-1 antibody (mouse anti-human 70-1, […], cat #339100, Invitrogen, Thermo Fisher Scientific, Carlsbad, CA) in antibody solution (3% normal goat serum, 1% bovine serum albumin, 0.5% Triton X-100, 0.05% sodium azide in 0.1 M Phosphate buffer pH 7.4) for 2 h at room temperature. […]
The tight junction organization rate (TiJOR) was calculated from confocal images, as described previously (Terryn et al., 2013). […]
Tight junction organization was assessed by immunocytochemistry using anti-zonula occludens 1 (ZO-1) immunostaining (bottom images of FIG. 2; that is, FIG. 2B), a major component of Tight Junctions that binds the cytoplasmic domain of both the Gap Junction transmembrane protein, Cx43, and the TJ transmembrane proteins, occludin(s) and claudin(s). The Tight Junction organization index (TiJOR) was calculated according to Terryn et al., 2013 and measures the degree of TJ dependent cell-cell coupling.

Where [7] appears, read: 3 weekly IVT injections, SD-OCT.
Where [8] appears, read: 3 weekly IVT injections, average per group.

Entries after “also recorded” stand apart in the source; their conditions may differ.

Regarding `NCC(=O)N1C[C@H](NC(=O)c2ccccc2)C[C@H]1C(=O)O` [Danegaptide, (2S,4R)-1-(2-aminoacetyl)-4-benzoylamino-pyrrolidine-2-carboxylic acid], the “Effect on number of pericyte ghosts vs STZ+Vehicle” value in data set [1] (One-Way ANOVA, Dunnett's test) is “statistically significant reduction”. The “Acellular capillaries (number)” value in data set [1] (count per image, STZ+Vehicle 22 ± 1) is 20 ± 1. For the same molecule, the “Pericytes (sum of the number of pericytes and pericyte ghosts)” value in data set [1] (count per image, STZ+Vehicle 52 ± 2) worked out at 49 ± 2. Besides, in data set [2] (setting [7]), the “Total retinal thickness, IN” value was determined as 206 ± 1.8 μm; the “Total retinal thickness, IT” value is given as 217 ± 1.6 μm; the “Total retinal thickness, SN” value was 205 ± 1.9 μm; the “Total retinal thickness, ST” value is listed as 210 ± 2.6 μm. The “Total retinal thickness, Whole Retina” value in data set [2] (setting [7]) was found to be 212 ± 2.2 μm. Also, in data set [2] (setting [8]), the “Outer retinal thickness, IN (inferior-nasal)” value was found to be 121.17 μm; the “Outer retinal thickness, IT (inferior-temporal)” value is listed as 123.61 μm; the “Outer retinal thickness, SN (superior-nasal)” value was determined as 117.36 μm; the “Outer retinal thickness, ST (superior-temporal)” value is on record as 118.14 μm. Further, the “Effect on inner retinal thickness” value in data set [2] (regional analysis ST, SN, IT, IN) is reported as “No biologically relevant effects”. Besides, the “Outer retinal thickness (mean)” value in data set [2] (weekly IVT injections at weeks 6, 7, 8, mean±S.E.M., STZ+Vehicle 123.8±0.9, naïve 119.8±0.5) is reported as 119.7±0.8 μm. In addition, the “ATP leakage from kidney epithelial cells” value in data set [3] is given as “can reduce ATP leakage”. In addition, the “Tolerability / ocular toxicity” value in data set [4] is on record as “well tolerated”. In addition, in data set [5], the “Reduction of EB extravasation vs STZ+Vehicle” value came out at 68.9%. Further, the “Evans Blue (EB) extravasation, % of STZ+Vehicle” value in data set [5] (normalized to STZ+Vehicle, mean±S.E.M.) was found to be 31.1±5.3%. Further, in data set [6], the “Protection against loss of Tight Junction organization (TiJOR)” value is “completely protected; also recorded: partial protection”.
